# Reference: ChEMBL document CHEMBL1151685, “Structure-activity relationship of antibacterial chalcones” (2008)
# Columns and labels:
# Assay type in all cases: functional
# [1] = test system: Bacillus cereus; test: Antibacterial activity against Bacillus cereus ATCC 11778 after 24 hrs by microdilution broth method; conditions: ATCC 11778, 24 h
# [2] = test system: Escherichia coli; test: Antibacterial activity against Escherichia coli ATCC 25922 after 24 hrs by microdilution broth method; conditions: ATCC 25922, 24 h
# [3] = test system: Pseudomonas aeruginosa; test: Antibacterial activity against Pseudomonas aeruginosa ATCC 27853 after 24 hrs by microdilution broth method; conditions: ATCC 27853, 24 h
# [4] = test system: Staphylococcus aureus; test: Antibacterial activity against Staphylococcus aureus ATCC 25923 after 24 hrs by microdilution broth method; conditions: ATCC 25923, 24 h
Structure (SMILES),MBC [1] [µg/mL],MIC [1] [µg/mL],MBC [2] [µg/mL],MIC [2] [µg/mL],MBC [3] [µg/mL],MIC [3] [µg/mL],MBC [4] [µg/mL],MIC [4] [µg/mL]
CC(C)=CCc1c(O)ccc(C(=O)/C=C/c2ccc(O)cc2)c1O [ISOBAVACHALCONE],31.2,31.2,1000,1000,2000,1000,31.2,31.2
COc1ccc(/C=C/C(=O)c2ccc(OC)c(CC=C(C)C)c2O)cc1,2000,2000,> 2000,2000,2000,2000,2000,2000
COc1ccc(C(=O)/C=C/c2ccccc2)c(O)c1CC=C(C)C [DERRICIN],2000,2000,2000,2000,2000,2000,> 2000,2000
"COc1ccc(/C=C/C(=O)c2ccc(OC)cc2)cc1 [4,4'-DIMETHOXYCHALCONE]",> 2000,> 2000,> 2000,> 2000,2000,2000,> 2000,> 2000
O=C(CCc1ccc(O)cc1)c1c(O)cc(O)cc1O [PHLORETIN],250,250,1000,> 2000,2000,2000,250,250
COc1ccc(C(=O)/C=C/c2ccc(O)cc2)c(O)c1CC=C(C)C,3.9,3.9,2000,2000,2000,2000,7.8,7.8
COc1ccc(/C=C/C(=O)c2c(OC)cc(OC)c(OC)c2OC(C)=O)cc1,> 2000,2000,> 2000,1000,2000,1000,> 2000,2000
COc1ccc(C(=O)/C=C/c2cccc(O)c2)c(O)c1CC=C(C)C,1000,1000,2000,2000,2000,2000,2000,2000
"COc1ccc(C(=O)/C=C/c2ccccc2)cc1OC [3',4'-DIMETHOXYCHALCONE]",1000,1000,1000,2000,2000,1000,2000,1000
CC(C)=CCC/C(C)=C\Cc1c(O)ccc(C(=O)/C=C/c2ccc(O)cc2)c1O,15.6,15.6,2000,1000,2000,1000,31.2,31.2
CC(C)=CCC/C(C)=C\Cc1c(O)ccc(C(=O)/C=C/c2ccc(O)c(CC=C(C)C)c2)c1O,15.6,15.6,2000,1000,2000,1000,31.2,31.2
CC1(C)C=Cc2cc(C(=O)/C=C/c3ccc(O)cc3)c(O)cc2O1 [4-HYDROXYISOLONCHOCARPIN],> 2000,1000,> 2000,2000,> 2000,2000,> 2000,1000
COc1cc(OC)c(OC)cc1/C=C/C(=O)c1cc(OC)c(OC)cc1OC,> 2000,> 2000,> 2000,> 2000,2000,2000,> 2000,> 2000
COc1cc(C(=O)CCc2ccccc2)c(OC)c(CC=C(C)C)c1OC,2000,2000,2000,2000,2000,2000,> 2000,2000
CC(C)=CCOc1ccc(C(=O)/C=C/c2ccccc2)c(O)c1 [CORDOIN],2000,2000,> 2000,2000,2000,2000,> 2000,2000
COc1cc(OC)c(OC)cc1/C=C/C(=O)c1ccc(OC)c(OC)c1,> 2000,2000,> 2000,1000,> 2000,2000,> 2000,2000
